Assay results taken from patent publication US10167262B2, “Herbicidal substituted 3-arylpyrazoles” (FMC CORPORATION, priority 2014, dated 2019).

Columns and labels:
Assay in all cases: Test E pre-/postemergence greenhouse test, plant response rating 0-100
Type in all cases: in vivo
[1] = tested on: dayflower (Virginia (VA) dayflower, Commelina virginica); settings: Commelina virginica, post-emergence, Postemergence, scale 0 to 100
In short: (§1)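 Pre- and postemergence sprays, vehicle non-phytotoxic solvent containing surfactant; postemergence plants 2–18 cm tall at the 1–4-leaf stage. Scored against controls after 14 to 21 days in a greenhouse, 0 being no effect and 100 complete control.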

[2] = tested on: wild poinsettia (Euphorbia heterophylla); settings: Euphorbia heterophylla, post-emergence, Postemergence, scale 0 to 100, read-out: Plant response rating, Poinsettia, Wild
In short: as §1

[3] = tested on: barnyardgrass (Echinochloa crus-galli); settings: Echinochloa crus-galli, post-emergence, Postemergence, scale 0 to 100
In short: as §1

soybean (Glycine max) = settings: Glycine max, post-emergence, Postemergence, scale 0 to 100
In short: as §1

[4] = tested on: sandbur (southern sandbur, Cenchrus echinatus); settings: Cenchrus echinatus, post-emergence, Postemergence, scale 0 to 100
In short: as §1

[5] = tested on: waterhemp (common waterhemp, Amaranthus rudis); settings: Amaranthus tuberculatus, post-emergence, Postemergence, scale 0 to 100
In short: as §1

corn (Zea mays) = settings: Zea mays, post-emergence, Postemergence, scale 0 to 100
In short: as §1

[6] = tested on: field bindweed (Convolvulus arvensis); settings: Convolvulus arvensis, post-emergence, Postemergence, scale 0 to 100
In short: as §1

[7] = tested on: fall panicum (Panicum dichotomiflorum); settings: Panicum dichotomiflorum, post-emergence, Postemergence, scale 0 to 100
In short: as §1

[8] = tested on: Italian ryegrass (Lolium multiflorum); settings: Lolium multiflorum, post-emergence, Postemergence, scale 0 to 100
In short: as §1

[9] = tested on: Brazilian crabgrass (Digitaria horizontalis); settings: Digitaria horizontalis, post-emergence, Postemergence, scale 0 to 100, read-out: Plant response rating, Crabgrass, Brazil
In short: as §1

[10] = tested on: hairy beggarticks (Bidens pilosa); settings: Bidens pilosa, post-emergence, Postemergence, scale 0 to 100
In short: as §1

CCOC(OCC)(c1ccccc1)c1c[nH]nc1-c1cc(Cl)cc(Cl)c1 [Compound 14, 3-(3,5-dichlorophenyl)-4-(diethoxyphenylmethyl)-1H-pyrazole]
90%: pest or weed control at 31 g/ha ([5]; 31 g ai/ha) | pest or weed control at 62 g/ha ([10]; 62 g ai/ha)
80%: pest or weed control at 31 g/ha ([10]; 31 g ai/ha)
10%: pest or weed control at 250 g/ha ([2]; 250 g ai/ha) | pest or weed control at 500 g/ha ([3]; 500 g ai/ha)
5%: pest or weed control at 500 g/ha ([2]; 500 g ai/ha)
0%: pest or weed control at 31 g/ha ([1]; 31 g ai/ha) | pest or weed control at 62 g/ha ([1]; 62 g ai/ha) | pest or weed control at 125 g/ha ([1]; 125 g ai/ha) | pest or weed control at 250 g/ha ([1]; 250 g ai/ha) | pest or weed control at 500 g/ha ([1]; 500 g ai/ha) | pest or weed control at 31 g/ha ([2]; 31 g ai/ha) | pest or weed control at 62 g/ha ([2]; 62 g ai/ha) | pest or weed control at 125 g/ha ([2]; 125 g ai/ha) | pest or weed control at 31 g/ha ([3]; 31 g ai/ha) | pest or weed control at 62 g/ha ([3]; 62 g ai/ha) | pest or weed control at 125 g/ha ([3]; 125 g ai/ha) | pest or weed control at 250 g/ha ([3]; 250 g ai/ha) | plant injury at 31 g/ha (soybean (Glycine max); 31 g ai/ha) | plant injury at 62 g/ha (soybean (Glycine max); 62 g ai/ha) | plant injury at 125 g/ha (soybean (Glycine max); 125 g ai/ha) | plant injury at 250 g/ha (soybean (Glycine max); 250 g ai/ha) | plant injury at 500 g/ha (soybean (Glycine max); 500 g ai/ha) | pest or weed control at 31 g/ha ([4]; 31 g ai/ha) | pest or weed control at 62 g/ha ([4]; 62 g ai/ha) | pest or weed control at 125 g/ha ([4]; 125 g ai/ha) | pest or weed control at 250 g/ha ([4]; 250 g ai/ha) | pest or weed control at 500 g/ha ([4]; 500 g ai/ha) | Corn plant response rating (crop injury, 0 = no effect, 100 = complete kill) at 31 g/ha (corn (Zea mays); 31 g ai/ha) | Corn plant response rating (crop injury, 0 = no effect, 100 = complete kill) at 62 g/ha (corn (Zea mays); 62 g ai/ha) | Corn plant response rating (crop injury, 0 = no effect, 100 = complete kill) at 125 g/ha (corn (Zea mays); 125 g ai/ha) | Corn plant response rating (crop injury, 0 = no effect, 100 = complete kill) at 250 g/ha (corn (Zea mays); 250 g ai/ha) | Corn plant response rating (crop injury, 0 = no effect, 100 = complete kill) at 500 g/ha (corn (Zea mays); 500 g ai/ha) | pest or weed control at 31 g/ha ([6]; 31 g ai/ha) | pest or weed control at 62 g/ha ([6]; 62 g ai/ha) | pest or weed control at 125 g/ha ([6]; 125 g ai/ha) | pest or weed control at 250 g/ha ([6]; 250 g ai/ha) | pest or weed control at 500 g/ha ([6]; 500 g ai/ha) | pest or weed control at 31 g/ha ([7]; 31 g ai/ha) | pest or weed control at 62 g/ha ([7]; 62 g ai/ha) | pest or weed control at 125 g/ha ([7]; 125 g ai/ha) | pest or weed control at 250 g/ha ([7]; 250 g ai/ha) | pest or weed control at 31 g/ha ([8]; 31 g ai/ha) | pest or weed control at 62 g/ha ([8]; 62 g ai/ha) | pest or weed control at 125 g/ha ([8]; 125 g ai/ha) | pest or weed control at 250 g/ha ([8]; 250 g ai/ha) | pest or weed control at 500 g/ha ([8]; 500 g ai/ha) | pest or weed control at 31 g/ha ([9]; 31 g ai/ha) | pest or weed control at 62 g/ha ([9]; 62 g ai/ha) | pest or weed control at 125 g/ha ([9]; 125 g ai/ha) | pest or weed control at 250 g/ha ([9]; 250 g ai/ha) | pest or weed control at 500 g/ha ([9]; 500 g ai/ha)
98%: pest or weed control at 125 g/ha ([5]; 125 g ai/ha) | pest or weed control at 500 g/ha ([10]; 500 g ai/ha)
100%: pest or weed control at 250 g/ha ([5]; 250 g ai/ha) | pest or weed control at 500 g/ha ([5]; 500 g ai/ha)
95%: pest or weed control at 62 g/ha ([5]; 62 g ai/ha) | pest or weed control at 125 g/ha ([10]; 125 g ai/ha) | pest or weed control at 250 g/ha ([10]; 250 g ai/ha)
